18 compounds from patent US9248122B2, “Heteroquinoline-3-carboxamides as KCNQ2/3 modulators” (GRÜNENTHAL GMBH, priority 2012, dated 2016) can be followed below.

One experiment addresses T1, KCNQ2/3 channels (Homo sapiens, UniProt O43525+O43526).
T1 construct: expressed in transfected cells
Put plainly: Fluorescence assay using a voltage sensitive dye (fluorimetry). The experiment is classed as cell-based. Conditions: CHO-K1 cells expressing KCNQ2/3 channels; for Emax: relative to retigabine = 100%, read-out: Fluorimetry % efficacy (retigabine = 100%). As to the method: Pharmacological Experiments Method I. Fluorescence Assay Using a Voltage Sensitive Dye
Human CHO—K1 cells expressing KCNQ2/3 channels are cultivated adherently at 37° C., 5% CO2 and 95% humidity in cell culture bottles (e.g. 80 cm^2 TC flasks, Nunc) with DMEM-high glucose (Sigma Aldrich, D7777) including 10% FCS (PAN Biotech, e.g. 3302-P270521) or alternatively MEM Alpha Medium (lx, liquid, Invitrogen, #22571), 10% fetal calf serum (FCS) (Invitrogen, #10270-106, heat-inactivated) and the necessary selection antibiotics.
Before being sown out for the measurements, the cells are washed with a 1×DPBS buffer without Ca^2+/Mg^2+ (e.g. Invitrogen, #14190-094) and detached from the bottom of the culture vessel by means of Accutase (PAA Laboratories, #L11-007) (incubation with Accutase for 15 min at 37° C.). The cell count then present is determined using a CASY™ cell counter (TCC model, Scharfe System) in order subsequently to apply, depending on the density optimization for the individual cell line, 20,000-30,000 cells/well/100 μl of the described nutrient medium to 96-well measuring plates of the Corning™ CeIIBIND™ type (Flat Clear Bottom Black Polystyrene Microplates, #3340). Incubation is then carried out for one hour at room temperature, without gassing or adjusting the humidity, followed by incubation for 24 hours at 37° C., 5% CO2 and 95% humidity.
The voltage-sensitive fluorescent dye from the Membrane Potential Assay Kit (Red™ Bulk format part R8123 for FLIPR, MDS Analytical Technologies™) is prepared by dissolving the contents of a vessel Membrane Potential Assay Kit Red Component A in 200 ml of extracellular buffer (ES buffer, 120 mM NaCl, 1 mM KCl, 10 mM HEPES, 2 mM CaCl2, 2 mM MgCl2, 10 mM glucose; pH 7.4). After removal of the nutrient medium, the cells are washed with 200 μl of ES buffer, then covered with a layer of 100 μl of the dye solution prepared above and incubated for 45 min at room temperature with the exclusion of light.
The fluorescence measurements are carried out with a BMG Labtech FLUOstar™, BMG Labtech NOVOstar™ or BMG Labtech POLARstar™ instrument (525 nm excitation, 560 nm emission, Bottom Read mode). After incubation of the dye, 50 μl of the test substances in the desired concentrations, or 50 μl of ES buffer for control purposes, are introduced into separate cavities of the measuring plate and incubated for 30 min at room temperature while being shielded from light. The fluorescence intensity of the dye is then measured for 5 min and the fluorescence value F1 of each well is thus determined at a given, constant time. 15 μl of a […] KCl solution ([…]) are then added to each well. The change in fluorescence is subsequently measured until all the relevant measured values have been obtained (mainly 5-30 min). At a given time after KCl application, a fluorescence value F2 is determined, in this case at the time of the fluorescence peak.
For calculation, the fluorescence intensity F2 is corrected for the fluorescence intensity F1, and the activity (ΔF/F) of the target compound on the potassium channel is determined as follows:
In order to determine whether a substance has agonistic activity,
A substance has an agonistic activity on the potassium channel if
Calculations of EC50 and IC50 values are carried out with the aid of ‘Prism v4.0’ software (GraphPad Software™)

Experiment [1] concerns withdrawal reflex of the rat tail (tail flick). Put plainly: Low-intensity tail flick test (rat). The experiment is classed as in vivo. Conditions: dose 10 mg/kg. As to the method: Method II. Low-Intensity Tail Flick Test (Rat)
In the low-intensity tail flick test, the determination of the antinociceptive effect of the compounds according to the invention towards an acute noxious thermal stimulus is carried out by measuring the withdrawal reflex of the rat tail (tail flick) in response to a radiant heat beam (analgesia meter; model 2011 of the company Rhema Labortechnik, Hofheim, Germany) according to the method described by D'Amour and Smith (J. Pharm. Exp. Ther. 72, 74 79 (1941). To this end, the rats were placed in a plexiglas restrainer, and a low-intensity radiant heat beam (48° C.) was focused onto the dorsal surface of the tail root. The stimulus intensity was adjusted to result in a mean pre-drug control withdrawal latency of about 7 s, thus also allowing a supraspinal modulation of the spinally mediated acute nociceptive reflex. […] Before administration of a compound according to the invention, the animals were pre-tested twice in the course of five minutes and the mean of these measurements was calculated as the pre-test mean. The antinociceptive effect was determined at 20, 40 and 60 min after peroral compound administration. The antinociceptive effect was calculated based on the increase in the tail withdrawal latency according to the following formula and is expressed as percentage of the maximum possible effect (MPE [%]): MPE=[(T1−T0)/(T2−T0)]*100 […]
Background: In hot-plate and tail-flick tests a longer latency is read as antinociception.

Broadly, the EC50 is the concentration giving half of the maximal effect. As for `CCOc1nc2cc(C(F)(F)F)sc2c(C)c1C(=O)NCc1cccc(F)c1` [Example 5, 5-Ethoxy-N-[(3-fluorophenyl)-methyl]-7-methyl-2-(trifluoromethyl)-thieno[3,2-b]pyridine-6-carboxylic acid amide], on KCNQ2/3 channels, the EC50 was determined as 51 nM and the Emax turned out to be 121%. For `CCSc1nc2nc(C(F)(F)F)ccc2c(C)c1C(=O)NCc1cccc(F)c1` [Example 6, 2-Ethylsulfanyl-N-[(3-fluorophenyl)-methyl]-4-methyl-7-(trifluoromethyl)-[1,8]naphthyridine-3-carboxylic acid amide] the same measures were 683 nM and 152%.

For `CCSc1nc2cnccc2c(C)c1C(=O)NCc1ccc(F)cc1` [Example 15, 2-Ethylsulfanyl-N-[(4-fluorophenyl)-methyl]-4-methyl-[1,7]naphthyridine-3-carboxylic acid amide], at KCNQ2/3 channels, the Emax amounted to 34%. As to `CCSc1nc2cc(C(F)(F)F)cnc2c(C)c1C(=O)NCc1cccc(F)c1` [Example 1, 2-Ethylsulfanyl-N-[(3-fluorophenyl)-methyl]-4-methyl-7-(trifluoromethyl)-[1,5]naphthyridine-3-carboxylic acid amide], at KCNQ2/3 channels, the response was half-maximal at 84 nM (EC50) and the Emax came out at 156%.

For `CCSc1nc2nc(C(F)(F)F)ccc2c(C)c1C(=O)NCc1ccc(F)cc1` [Example 7, 2-Ethylsulfanyl-N-[(4-fluorophenyl)-methyl]-4-methyl-7-(trifluoromethyl)-[1,8]naphthyridine-3-carboxylic acid amide], in experiment [1], the “Low intensity tail flick, rat, peroral, ED50 or MPE (dose) [mg/kg]” value is 16 (10) %. Also, on KCNQ2/3 channels, the concentration for a half-maximal effect (EC50) turned out to be 412 nM and the Emax came out at 132%. As for `CCSc1nc2ccncc2c(C)c1C(=O)NCc1cccc(F)c1` [Example 13, 2-Ethylsulfanyl-N-[(3-fluorophenyl)-methyl]-4-methyl-[1,6]naphthyridine-3-carboxylic acid amide], the Emax at KCNQ2/3 channels was 32%.

With `CCOc1nc2sc(C(F)(F)F)cc2c(C)c1C(=O)NCc1cccc(F)c1` [Example 18, 6-Ethoxy-N-[(3-fluorophenyl)-methyl]-4-methyl-2-(trifluoromethyl)-thieno[2,3-b]pyridine-5-carboxylic acid amide], on KCNQ2/3 channels, the EC50 was determined as 63 nM and the Emax stood at 112%. With `CCSc1nc2ncccc2c(C)c1C(=O)NCc1ccc(F)cc1` [Example 16, 2-Ethylsulfanyl-N-[(4-fluorophenyl)-methyl]-4-methyl-[1,8]naphthyridine-3-carboxylic acid amide], the Emax at KCNQ2/3 channels is 10%. Take `CCSc1nc2ccsc2c(C)c1C(=O)NCc1cccc(F)c1` [Example 14, 5-Ethylsulfanyl-N-[(3-fluorophenyl)-methyl]-7-methyl-thieno[3,2-b]pyridine-6-carboxylic acid amide]: on KCNQ2/3 channels, a half-maximal effect (EC50) was put at 650 nM and the Emax is -39%. For `CCSc1nc2cccnc2c(C)c1C(=O)NCc1ccc(F)cc1` [Example 9, 2-Ethylsulfanyl-N-[(4-fluorophenyl)-methyl]-4-methyl-[1,5]naphthyridine-3-carboxylic acid amide], on KCNQ2/3 channels, the Emax came to 6%. On the same count and under the same terms, the figure for `CCSc1nc2ncccc2c(C)c1C(=O)NCc1cccc(F)c1` [Example 17, 2-Ethylsulfanyl-N-[(3-fluorophenyl)-methyl]-4-methyl-[1,8]naphthyridine-3-carboxylic acid amide] is 10%.

For the compound `CCSc1nc2cnccc2c(C)c1C(=O)NCc1cccc(F)c1` [Example 2, 2-Ethylsulfanyl-N-[(3-fluorophenyl)-methyl]-4-methyl-[1,7]naphthyridine-3-carboxylic acid amide], on KCNQ2/3 channels, the EC50 is 2190 nM and the Emax was found to be 62%. As to `CCSc1nc2cc(C(F)(F)F)ncc2c(C)c1C(=O)NCc1cccc(F)c1` [Example 11, 2-Ethylsulfanyl-N-[(3-fluorophenyl)-methyl]-4-methyl-7-(trifluoromethyl)-[1,6]naphthyridine-3-carboxylic acid amide], on KCNQ2/3 channels, the EC50 came to 201 nM and the Emax worked out at 101%.

Consider `CCSc1nc2ccncc2c(C)c1C(=O)NCc1ccc(F)cc1` [Example 3, 2-Ethylsulfanyl-N-[(4-fluorophenyl)-methyl]-4-methyl-[1,6]naphthyridine-3-carboxylic acid amide], for which, at KCNQ2/3 channels, the Emax is 34%. `CCSc1nc2cc(C(F)(F)F)ncc2c(C)c1C(=O)NCc1ccc(F)cc1` [Example 12, 2-Ethylsulfanyl-N-[(4-fluorophenyl)-methyl]-4-methyl-7-(trifluoromethyl)-[1,6]naphthyridine-3-carboxylic acid amide]: at KCNQ2/3 channels, the EC50 was determined as 301 nM and the Emax was found to be 97%. Regarding `CCSc1nc2cc(C(F)(F)F)cnc2c(C)c1C(=O)NCc1ccc(F)cc1` [Example 10, 2-Ethylsulfanyl-N-[(4-fluorophenyl)-methyl]-4-methyl-7-(trifluoromethyl)-[1,5]naphthyridine-3-carboxylic acid amide], on KCNQ2/3 channels, it took 101 nM to reach a half-maximal effect (EC50) and the Emax is 148%. Regarding `CCSc1nc2sccc2c(C)c1C(=O)NCc1cccc(F)c1` [Example 4, 6-Ethylsulfanyl-N-[(3-fluorophenyl)-methyl]-4-methyl-thieno[2,3-b]pyridine-5-carboxylic acid amide], the Emax at KCNQ2/3 channels amounted to 31%. The same measure, in the same setting: as for `CCSc1nc2cccnc2c(C)c1C(=O)NCc1cccc(F)c1` [Example 8, 2-Ethylsulfanyl-N-[(3-fluorophenyl)-methyl]-4-methyl-[1,5]naphthyridine-3-carboxylic acid amide], the figure is 9%.
